Measured values from patent US7132243B2, “Clonal expansion of T cells of unknown specificity and identification of ligand recognized by the clonally expanded T cells” (Juridical Foundation The Chemo-Sero-Therapeutic Research …, priority 2001, dated 2006).
Where no end group is shown, it is not given here.

B1: purified Cry j I protein: purified major allergen of Japanese cedar (Cryptomeria japonica) pollen (protein)
chain: DNPIDSCWRGDSNWAQNRMKLADCAVGFGSSTMGGKGGDLYTVTNSDDDPVNPAPGTLRYGATRDRPLWIIFSGNMNIKLKMPMYIAGYKTFDGRGAQVYIGNGGPCVFIKRVSNVIIHGLYLYGCSTSVLGNVLINESFGVEPVHPQDGDALTLRTATNIWIDHNSFSNSSDGLVDVTLTSTGVTISNNLFFNHHKVMLLGHDDAYSDDKSMKVTVAFNQFGPNCGQRMPRARYGLVHVANNNYDPWTIYAIGGSSNPTILSEGNSFTAPNESYKKQVTIRIGCKTSSSCSNWVWQSTQDVFYNGAYFVSSGKYEGGNIYTKKEAFNVENGNATPQLTKNAGVLTCSLSKRC

System: 19.6.47 T cells
Assay: Proliferation reaction of isolated T cell clone with cedar pollen antigen and synthetic peptide
Type: cell-based, human
Settings: radiated (45 Gy) PBMC; FIG. 5
Method: Purified Cry j I protein (closed bar: 50 μg/ml, hatched bar: […], and open bar: 0.5 μg/ml), Cry j I p301–321 (closed bar: 250 μM, hatched bar: 25 μM, and open bar: 2.5 μM), and irrelevant (irrelevant peptide: […](SEQ ID NO: 3)).
The donor of 19.6.47 T cells suffered from hay fever of Japanese cedar pollen and said T cells were established during heavy pollination season. In this respect, a major allergen of Japanese cedar pollen (Cryptomeria japonica I; Cry j I) among the three non-autologous peptides shown in Table 3 was considered to be a possible peptide ligand recognized by said T cell clone. Thus, a synthetic peptide Cry j I p301–321 ([…](SEQ ID NO: 4)) and purified Cry j I protein were examined for their reactivity with the 19.6.47 T cells. A major allergen of Japanese cedar (Cryptomeria japonica) pollen was purified as described in Matsushita, S. et al., J. Immunol., 1987, 138: 109–115.
The 19.6.47 T cells were cultured with radiated (45 Gy) PBMC either in the presence of purified Cry j I protein ([…]), Cry j I p301–321 peptide ([…]) or irrelevant peptide.

Row | Molecule | reactivity with the 19.6.47 T cells (proliferation)
1 | DVFYNGAYFVSSGKYEGGNIY (SEQ ID NO: 4) [Cry j I p301–321] | reacted
2 | B1 | reacted
